Assay results reported in PMC10272835, “Exploration of T cell immune responses by expression of a dominant-negative SHP1 and SHP2” (Frontiers in Immunology, 2023).

What was measured:
[1] = test system: tumor cell lines (SupT1, Nalm6, Raji, Skov3, CHLA, H446); test: Upregulation of endogenous PDL1 by IFNγ; type: cell-based; details: IFNγ 10-400 ng/ml, 24 hours; flow cytometry
Method: In order to assess the effect of upregulation of endogenous PDL1 on tumour cells, cell lines were incubated for 24 hours with increasing amounts of IFNγ (10, 20, 40, 60, 80, 100, 200, 400 ng/ml) and PDL1 levels were assessed by flow cytometry.
(§1) SupT1 Nalm6 Raji Skov3 CHLA H446
(§2) Supplementary Figure 4: Effect of endogenous PDL1: A) Tumor cell lines were treated with […]
(§3) for PDL1 expression. B-D) The indicated tumor cell lines were treated with 100ng/ml IFNγ for 24 hours or left untreated following which 2x10^5 tumor cells were co-cultured with the indicated CAR T cells at an effector:target ratio of 1:1 for 48 hours (Skov3-GD2) or 96 hours (H446, CHLA255) and tumor cell killing assessed by flow cytometry and normalised to respective co-cultures with non-transduced (NT) T cells (100%). Points represent individual […]

[2] = test system: Skov3-GD2, H446, CHLA255 cells; test: Target cell killing after IFNγ treatment; type: cell-based; details: 100ng/ml IFNγ 24 hours; E:T 1:1, 48 hours (Skov3-GD2) or 96 hours (H446, CHLA255)
Method: as §1, §2, §3

SHP2 = test system: SHP2; parameters: method as in PMID 30972278; details: following activation; ref [29]; cited from earlier work
[3] = test system: CAR T cells with SupT1-GD2-PDL1 target cells; test: CAR T proliferation, dSHP2 versus Pembrolizumab; type: cell-based; details: Pembrolizumab 2.5, 5, 10 µg/mL, E:T 1:4, 5 days
Method: PBMCs were labelled with Cell Trace Violet (CTV) according to manufacturer’s instructions (ThermoFisher Scientific; C34557) and cultured with 0.5x10^5 target cells at 1:1 E:T ratio for 96 hours. Numbers of CD3^+ RQR8+ T cells and CTV MFI were assessed by flow cytometry.
(§4) Supplementary Figure 6: Comparison of dSHP2 with Pembrolizumab. A) T cells expressing RQR8 and the GD2 CAR alone or in combination with PD1 and/or dSHP2 were incubated with 1x10^5 SupT1 cells lacking antigen expression (SupT1-NT) or engineered to express GD2 alone (SupT1-GD2) or in the presence of PDL1 (SupT1-GD2-PDL1) at an effector:target ratio of 1:8 for 72 hours. Pembrolizumab was included in co-cultures with T cells expressing PD1 and the GD2 CAR at the indicated concentrations. Surviving target cells were enumerated and normalized to the respective co-cultures with non-transduced T cells (100%). B) Supernatants from co-cultures in (A) were analyzed for IFNγ by ELISA. C-D) T cells were labelled with Cell Trace Violet and co-cultured with 2x10^5 SupT1 target cells at an E:T ratio of 1:4 for 5 days and CAR T cells enumerated. Bars represent the mean of 3-6 biologically independent replicates. […]

SupT1-GD2-PDL1 cells [4] = test: CAR T cytotoxicity, dSHP2 versus Pembrolizumab; type: cell-based; details: Pembrolizumab 2.5, 5, 10 µg/mL, E:T 1:8, 72 hours, 3-6 replicates
Method: (§5) Transduced T cells were depleted of CD56 cells using the EasySep Human CD56 positive selection kit (Stemcell Technologies; 17855) and rested for 24 hours. Transduced cells were co-cultured with target cells at the indicated effector: target (E:T) ratios with target cells remaining constant at the indicated number of target cells/co-culture. At the end of the co-culture period target cells were enumerated by flow cytometry and cytotoxicity calculated as a percentage of the number of target cells recovered from co-cultures with non-transduced (NT) T cells.
as §4, with “enumerated.” for “enumerated. Bars represent the mean of 3-6 biologically independent replicates.”

[5] = test system: SupT1-GD2-PDL1 target cells; test: IFNγ release, dSHP2 versus Pembrolizumab; type: cell-based; details: GD2 CAR; Pembrolizumab 2.5, 5, 10 µg/mL; E:T 1:8, 72 hours
Method: as §4

SupT1-GD2 cells = test: Effect of inhibitory ligand expression on GD2 CAR cytotoxicity; type: cell-based; details: ligand expressed on SupT1-GD2, E:T 1:4 and 1:8, 6 days
Method: as §5
Figure 3 Interaction of dSHP2 with immunoinhibitory T cell receptors. (A-E) Binding of dSHP2 to phosphorylated peptides derived from the endodomains of immunoinhibitory T cell receptors. Plates were coated with phosphorylated or non-phosphorylated peptide at the indicated concentration and the purified, His-tagged SH2 domains of dSHP2 were allowed to bind overnight. Binding was measured through detection of the His tag. (F) Effect of inhibitory ligand expression on target cells on CAR T cytotoxicity. […] Supernatants were harvested from these co-cultures and levels of IFNγ measured by ELISA (I). […] Statistical significance was measured by two-way ANOVA. […]

SHP2 protein = test: Western blot of SHP2 after gene disruption; type: cell-based; details: after 6 days, 4 donors
Method: (§6) Expression of the SHP2 (PTPN11) gene was disrupted by Cas9-mediated indel formation. For each sgRNA, 2 samples of 5x10^6 PBMCs were nucleofected in […] of P3 buffer (Lonza; V4XP-3024) with 125 pmol of Alt-R Sp HiFi Cas 9 nuclease v3 (IDT; 108210621) complexed with 187.5 pmol of the PTPN11 sgRNA ([…]) or a non-targeting sgRNA ([…]; Synthego) using pulse code EH-115. Complexing of Cas9 and the sgRNA was carried out at ambient temperature for 10 minutes prior to nucleofection. […] PBMCs were transduced with retroviral constructs 24 hours after nucleofection. PBMCs were collected for genotyping, Western blotting and functional assessment 6 days after nucleofection.
Cells were stimulated as indicated then 0.5x10^6 cells were harvested and pelleted at 400xg for 2 minutes. The pellets were washed with ice-cold PBS, centrifuged as before and lysed in 50μl of 1x RIPA buffer (Millipore) supplemented with 1x protease and phosphatase inhibitor (Abcam). The cells were incubated on ice for 15 minutes, vortexed and incubated for further 15 minutes. The lysate was clarified by centrifuging the cells at 13000xg for 10 minutes at 4°C, protein concentration was determined using the BCA Protein assay Kit (Pierce) and stored at -80°C until use. Prior to gel electrophoresis lysates were mixed with NuPAGE™ LDS Sample Buffer (4X) (Invitrogen™) and heated at 95°C for 10 minutes. […]

SHP2 (PTPN11) gene = test: SHP2 gene disruption (ICE); type: cell-based; details: Cas9 RNP nucleofection of T cells, after 6 days; 4 donors
Method: as §6
Genomic DNA was extracted from PBMCs using the GenElute Blood Genomic DNA Kit (Sigma; NA2010) according to the manufacturer’s instructions. The sequence flanking the SHP2 sgRNA target site was amplified by PCR from 100 ng of genomic DNA using Q5 DNA polymerase (NEB; M0491L) and the primers, SHP2_forward 5’-[…]-3’ and SHP2_reverse 5’-[…]-3’ (IDT). The PCR products were Sanger sequenced (Source Bioscience) and indel formation and knockout efficiencies determined by ICE (Synthego), comparing SHP2-edited and non-target-edited sequences to an unedited control.

SupT1-GD2-PDL1 cells [6] = test: CAR T cytotoxicity, dSHP2 versus SHP2 knock-out; type: cell-based; details: GD2 CAR alongside PD1
Method: as §5, §6
Supplementary Figure 5: Comparison of dSHP2 expression with genomic excision of SHP2. […]

## IFNγ: exogenous IFNγ used to upregulate PDL1 on tumor cell lines
[1]
  PDL1 upregulation: did upregulate PDL1 in some cell lines
[2]
  target cell killing with exogenous IFNγ: increased target cell killing

## CC1(N)CCN(c2cnc(-c3cccc(Cl)c3Cl)c(N)n2)CC1 [SHP099]
SHP2
  effect on central memory population, effector molecule expression: increased central memory population and increased expression of granzyme B, perforin, IFNγ, TNFα and FasL
  effect on proliferation or viability: no effect on proliferation or viability

## pembrolizumab: antibody blocking PD1
[3]
  restoration of proliferation, compared with Pembrolizumab: comparable effects
SupT1-GD2-PDL1 cells [4]
  restoration of killing, compared with Pembrolizumab: comparable effects
[5]
  restoration of IFNγ release, compared with Pembrolizumab: slightly greater restoration of IFNγ secretion at the highest concentration

## CD80: inhibitory ligand of CTLA4 expressed on SupT1-GD2 cells
SupT1-GD2 cells
  effect of target cell ligand expression on CAR T cytotoxicity: mild enhancement of CAR T cytotoxicity

## SHP2-directed sgRNA: PTPN11 sgRNA (GAGACUUCACACUUUCCGUU) complexed with Cas9 nuclease (complexed with Cas9 nuclease, further chemistry not given here)
SHP2 protein
  SHP2 protein level: significant decrease in SHP2 protein
SHP2 (PTPN11) gene
  indel formation: greater than 80%
SupT1-GD2-PDL1 cells [6]
  relief of PDL1-mediated inhibition of CAR T cells: substantially less
